Experimental data reported in patent publication US20090181976A1, “Use of Compounds Binding to the Sigma Receptor for the Treatment of Metabolic Syndrome” (priority 2006, published 2009).

Legend:
[1] = system: obese (diet-induced obesity) wild type mice; test: Triglyceride levels in blood of high fat diet-fed obese mice after 9 days of treatment; assay type: in vivo; details: male C57BL/6J mice on high fat diet, 50 mg/Kg s.c., once a day, blood on day 10, mean±standard deviation, p<0.05 vs vehicle control (91.75±32.88)
Protocol: Pharmacologic approach: Treatment of obese (diet-induced obesity) wild type mice with a sigma-1 receptor antagonist results in a significant reduction in the concentration of triglycerides in blood.
Wild type male mice from the C57BL/6J strain were used in these experiments. Mice of 8-10 weeks of age were fed for two months with high fat diet (49% fat content; Harlan Ibérica, TD97366). Treatment was administered subcutaneously, once a day, for 9 days. Treated animals received daily (for 9 days) a single dose of 50 mg/kg of BD-1063 (a sigma-1 receptor antagonist). Control animals received daily vehicle (saline). During the period of treatment, mice had free access to water and food (high fat diet). At the end of the treatment, on day 10, blood samples were obtained through intracardiac puncture and triglyceride levels were measured using the Cholestech LDX blood analyzer. Student t test was applied to determine statistical significance.
Values are means±standard deviation. Units are expressed as mg/100 mL.

sigma-1 (σ1) receptors = sigma-1 (σ1) receptors (Homo sapiens, UniProt Q99720); details: statement on literature knowledge; cited from earlier work
sigma-1 (σ1) receptors, sequence (Q99720 whole entry): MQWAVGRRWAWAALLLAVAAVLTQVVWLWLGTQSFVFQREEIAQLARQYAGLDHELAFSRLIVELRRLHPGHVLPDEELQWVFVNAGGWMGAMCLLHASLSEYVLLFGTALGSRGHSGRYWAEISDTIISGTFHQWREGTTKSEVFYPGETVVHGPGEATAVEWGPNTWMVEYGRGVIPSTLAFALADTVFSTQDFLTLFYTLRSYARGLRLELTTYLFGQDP

CN1CCN(CCc2ccc(Cl)c(Cl)c2)CC1 [BD-1063]
Triglyceride Levels [1]: 56.8±9.41 mg/100 mL

CC(C)=CCN1CCC2(C)c3cc(O)ccc3CC1C2C (centres unmarked) [pentazocine]
affinity of sigma-1 receptors (sigma-1 (σ1) receptors): very high affinity
